From PMC7160673, “A Degenerate Peptide Library Approach to Reveal Sequence Determinants of Methyllysine-Driven Protein Interactions” (Frontiers in Cell and Developmental Biology, 2020)
Where a SMILES comes first, the peptide text is derived from it. Where no end group is shown, it is not given here. [ ]: non-standard residue; d: D form. The star is where a group is joined. 5FAM = O=C1OC2(c3ccc(O)cc3Oc3cc(O)ccc32)c2ccc(C(=O)*)cc21; Lys(Me3) = C[N+](C)(C)CCCC[C@H](N)C(=O)O; Peg = not defined here

Assays:
Format in all cases: binding
CDYL2 chromo [1] = molecular target: T1, CDYL2 chromo (Homo sapiens, UniProt Q8N8U2); test: Fluorescence polarization assay, CDYL2 chromo; conditions: 10 nM N-terminal FAM peptide, 25 mM HEPES pH 7.5, 100 mM NaCl, 0.05% NP-40, average of 4 measurements from 2 independent experiments, error SD (Figure 4C)
T1 construct: 1-75; made in house; host or cells: E. coli BL21
T1 sequence (Q8N8U2 1-75): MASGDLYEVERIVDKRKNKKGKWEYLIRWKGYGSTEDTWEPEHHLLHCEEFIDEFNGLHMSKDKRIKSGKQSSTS
Experimental: Plasmids encoding N-terminal GST fusions of each reader domain (Supplementary Table S1) were transformed into BL21 E. coli and protein expression was induced with 0.5 mM IPTG at 16°C for 6–16 h. Induced bacterial pellets were suspended in 30 mL cold 1× PBS supplemented with 1 mM DTT and 1 mM PMSF. Next, bacteria were incubated with lysozyme (Thermo #89833 LOT#ta262343) and 1 μL of Pierce universal nuclease (Pierce #88702 LOT#00775219) on ice for 30 min followed by 3 rounds of sonication (30 s sonication with 10 s rest, all on ice) using a Qsonica ultrasonic processor (500 W 20 kHz with 1/8” microtip) at 40% amplitude. Lysed bacteria were centrifuged at 38465 rcf for 45 min at 4°C. Cleared supernatant was incubated with 5 mL of Glutathione resin (Thermo #16101 LOT#UD285112) with rotation at 4°C for 16 h. Bound protein was washed 3× with 10 mL cold 1× PBS and eluted twice with 10 mL of 25 mM HEPES pH 7.5, 10 mM L-glutathione (Sigma), and 100 mM NaCl. Protein was concentrated by centrifugation at 1,500 rpm on a Sorvall Legend X1 centrifuge in Amicon Ultra-15 centrifugal filter units (UFC#903024). Protein was resuspended in 25 mM HEPES pH 7.5 and 100 mM NaCl and concentrated by centrifugation as above three times. Protein was quantified by absorbance measurement at 280 nm divided by the computed extinction coefficient (ExPASy) ([Gasteiger et al., 2003]) of the GST-tagged protein domain.
Peptides functionalized with N-terminal 5-carboxyfluorescin (FAM) were synthesized by Genscript. All 7-mer motifs were synthesized with flanking glycines to mimic the Kme-OPL design. Binding assays were done in black 384 well plates (Corning #3575). […] Polarization was measured on a Synergy Neo fluorescence plate reader (Biotek) with a 485 ± 10 nm excitation filter and a 528 ± 10 nm emission filter. […] Anisotropy units (A) were calculated using the equation A = (2P)/(3-P). Dissociation constants were determined by non-linear regression analysis of anisotropy curves by specific binding with Hill slope in GraphPad version 8.3.0.

[2] = test system: Abcam #ab8895, anti-H3K4me1; test: Histone peptide microarray, Abcam ab8895; conditions: Abcam ab8895 (anti-H3K4me1) hits, average signal per peptide
CDYL2 chromo [3] = molecular target: T1, CDYL2 chromo; test: Histone peptide microarray, CDYL2 chromo; conditions: normalized histone peptide array signal, hits; hybridization with 1 M CDYL2 chromo (so in the source); two subarrays
Experimental: (§1) Peptide microarrays were fabricated using an Aushon 2470 microarrayer and used as described ([Cornett et al., 2017]) with the following modifications. Protein and antibody hybridization steps were performed in buffer containing 25 mM HEPES pH 7.5, 100 mM NaCl, 0.5% BSA (w/v), and 0.1% NP-40. Slides were washed 3 × 5 min in PBS supplemented with 0.1% Tween-20 between each hybridization step. Antibodies used were primary anti-GST (Sigma #7781, 1:2,000 dilution) and an AlexaFluor 647-labeled secondary antibody (Life Technologies A-21245, 1:5,000 dilution). […] Full lists of peptides queried by array analysis are in Supplementary Table S2.

[4] = test system: Millipore #07-449, anti-H3K27me3; test: Histone peptide microarray, Millipore 07-449; conditions: Millipore 07-449 (anti-H3K27me3) hits, average signal per peptide
[5] = test system: ABClonal #A2355, anti-H3K4me1; test: Histone peptide microarray, ABclonal A2355; conditions: Abclonal A2355 (anti-H3K4me1) hits
CST 9733 (anti-H3K27me3) = test: Histone peptide microarray, CST 9733; conditions: histone peptide array signal normalized to the highest peptide average per subarray, hits; CST 9733 LOT:14 dilution 1:5,000
MPP8 chromo = molecular target: T2, MPP8 chromo (Homo sapiens, UniProt Q99549); test: Histone peptide microarray, MPP8 chromo; conditions: normalized histone peptide array signal, hits; hybridization with 1 M MPP8 chromo (so in the source); two subarrays
T2 construct: 50-118; made in house; host or cells: E. coli BL21
T2 sequence (Q99549 50-118): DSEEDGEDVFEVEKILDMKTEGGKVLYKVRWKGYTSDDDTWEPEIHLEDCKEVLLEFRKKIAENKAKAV
Experimental: as §1

[6] = test system: Active Motif #39161, anti-H3K9me3; test: Histone peptide microarray, Active Motif 39161; conditions: Active Motif 39161 (anti-H3K9me3) hits
53BP1 TTD = test: Histone peptide microarray, 53BP1 TTD; conditions: 53BP1 TTD hits, average signal per peptide
Procedure, shortened: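 Binding of protein or antibody to arrayed histone peptides read by AlexaFluor 647 fluorescence, with anti-GST primary (1:2,000) and labelled secondary (1:5,000) for GST-fused domain. Hybridisations in HEPES pH 7.5 buffer with 100 mM NaCl, 0.5% BSA and 0.1% NP-40; triple PBS-Tween washes between steps.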

| Compound | Kd (CDYL2 chromo [1]) [µM] | Avg Signal [2] | Avg Signal (CDYL2 chromo [3]) | Avg Signal [4] | Avg Signal [5] | Avg Signal (CST 9733 (anti-H3K27me3)) | Avg Signal (MPP8 chromo) | Avg Signal [6] | Avg Signal (53BP1 TTD) |
| --- | --- | --- | --- | --- | --- | --- | --- | --- | --- |
| C[C@H](NC(=O)[C@H](CCCCN)NC(=O)CN)C(=O)N[C@@H](CCCCN)C(=O)N[C@@H](CCCC[N+](C)(C)C)C(=O)N[C@H](C(=O)NCC(=O)N[C@@H](CCCCN)C(=O)NCC(=O)O)[C@@H](C)O [GKAK(Kme3)TGKG] (H-GKAK[Lys(Me3)]TGKG-OH) | 3.6 ± 0.73 |  |  |  |  |  |  |  |  |
| C[C@H](NC(=O)[C@@H](NC(=O)CNC(=O)c1ccc2c(c1)C(=O)OC21c2ccc(O)cc2Oc2cc(O)ccc21)[C@@H](C)O)C(=O)N[C@@H](CCCNC(=N)N)C(=O)N[C@@H](CCCC[N+](C)(C)C)C(=O)N[C@@H](CO)C(=O)N[C@H](C(=O)NCC(=O)NCC(=O)O)[C@@H](C)O [GTAR(Kme3)STGG] (5FAM-GTAR[Lys(Me3)]STGG-OH) | 18.4 ± 6 |  |  |  |  |  |  |  |  |
| C[C@H](NC(=O)[C@H](Cc1c[nH]c2ccccc12)NC(=O)CN)C(=O)N[C@@H](Cc1ccc(O)cc1)C(=O)N[C@@H](CCCC[N+](C)(C)C)C(=O)N[C@H](C(=O)NCC(=O)N[C@@H](CCCCN)C(=O)NCC(=O)O)[C@@H](C)O [GWAY(Kme3)TGKG] (H-GWAY[Lys(Me3)]TGKG-OH) | 0.1 ± 0.0066 |  |  |  |  |  |  |  |  |
| AR(Me2a)TKQTARK(Me2)STGGKAPRKQL-Peg-Biotin [H3.1R2me2aK9me2] |  | 0.226 | 0.425 | 0.0074 | 0.01048 | 0.0005026 | 0.8941 |  |  |
| ARTK(Me2)QTARK(Me2)STGGKA-Peg-Biot [H3.1K4me2K9me2] |  | 0.2534 | 0.1337 |  | 0.2431 | 0.0004919 | 0.2515 | 0.001292 |  |
| ARTK(Me3)QTAR(Me2s)K(Me3)STGGKAPRKQL-K(Biot)-NH2 [H3.1K4me3R8me2sK9me3] |  |  | 0.4093 | 0.05738 | 0.001264 | 0.01805 | 0.7903 | 0.5974 | 0.09278 |
| ARTK(Me3)QTARK(Me3)STGGKAPRKQL-K(Biot)-NH2 [H3.1K4me3K9me3] |  | 0.01482 | 0.4091 | 0.1282 | 0.008666 | 0.02074 | 0.8973 | 1 | 0.1303 |
| ARTK(Me)QTARK(Me2)STGGKA-Peg-Biot [H3.1K4me1K9me2] |  | 0.7578 | 0.2405 | 0.001269 | 0.6304 | 0.0001122 | 0.4754 | 0.004399 |  |
| ARTKQTAR(Me2a)K(Me3)STGGKAPRKQL-K(Biot)-NH2 [H3.1R8me2aK9me3] |  | 0.1096 | 0.3975 | 0.01827 | 0.0005778 | 0.008858 | 0.8359 | 0.6713 | 0.2106 |
| ARTKQTAR(Me)K(Me2)STGGKAPRKQL-K(Biot)-NH2 [H3.1R8me1K9me2] |  | 0.138 | 0.2455 | 0.003186 | 0.001447 |  | 0.5401 | 0.001142 | 0.4249 |
| ARTKQTAR(Me)K(Me3)STGGKAPRKQL-K(Biot)-NH2 [H3.1R8me1K9me3] |  | 0.156 | 0.4762 | 0.03826 | 0.008113 | 0.005418 | 0.8612 | 0.7313 | 0.134 |
| ARTKQTARK(Me2)STGGK(Ac)APRKQL-K(Biot)-NH2 [H3.1K9me2K14ac] |  | 0.2875 | 0.2985 | 0.00428 | 0.01354 | 0.0003203 | 0.7946 | 0.00928 |  |
| Ac-APRKQLATKAAR(Me2a)K(Me3)SAPSTGG-Peg-Biot [H3.3R26me2aK27me3] |  | 0.0125 | 0.1727 | 0.2433 |  | 0.914 | 0.04277 | 0.0032 | 0.1003 |
| Ac-TARK(Me2)STGGKAPRKQLATKAARK(Me2)SAP-Peg-K(Biot)-NH2 [H3.1K9me2K27me2] |  | 0.004725 | 1 | 0.009651 | 0.0002867 | 0.04684 | 0.9552 | 0.0006693 |  |
| PEPAKSAPAPKKGSK(Ac)KAVTKAQKK-Peg-Biot (chain 2 KAVTKAQKK-{Peg-Biot}; not fully specified; reading uncertain) [Peptide H2BK15ac] |  | 0.0005218 | 0.05586 | 0.004399 | 0.00117 |  | 0.04671 | 0.01254 |  |
